Experimental data reported in US5488051A, “Substituted 5,6-dihydro-5-oxo-1,4-dithiino-(2,3-d)-pyridazine-2,3-dicarbonitriles, compositions containing them and their use as antimicrobials” (The Dow Chemical Company, priority 1994, dated 1996).
Converted amounts (≈) assume the structure as drawn. Read-outs that look alike come from different tables or passages of the source.

How the values were obtained:
[1] = test system: Staphylococcus aureus (Sa); test: MIC for Staphylococcus aureus, nutrient agar; assay type: cell-based, Staphylococcus aureus ATCC 6538; conditions: 30° C., 48 hours, read-out: Minimum Inhibitory Concentration (MIC), Sa
Procedure: (§1) The minimum inhibitory concentration (MIC) for the compounds listed in Table I is determined for 9 bacteria, using nutrient agar; and 7 yeast and fungi, using malt yeast agar. A one percent solution of the test compound is prepared in a mixture of acetone and water.
(§2) Nutrient agar is prepared at pH 6.8, representing a neutral medium, and at pH 8.2, representing an alkaline medium. The nutrient agars are prepared by adding 23 g of nutrient agar to one-liter of deionized water. In addition, the alkaline medium is prepared by adjusting a 0.04M solution of N-[tris-(hydroxymethyl)methyl]-glycine buffered deionized water with concentrated sodium hydroxide to a pH of 8.5.
(§3) The test tubes containing the malt yeast agar and the nutrient agar are cooled in a water bath until the temperature of the agar is 48° C. Then, an appropriate amount of the one percent solution of the test compound is added (except in the controls where no compound is added) to the respective test tubes so that the final concentrations are zero (0), 1.0, 2.5, 5, 10, 25, 50, 100, 250 and 500 parts per million of the test compound in each of the respective type of agar. The contents of each of the test tubes are then transferred to separate petri plates. After drying for 24 hours, the petri plates containing nutrient agar are inoculated with bacteria and those containing malt yeast agar are inoculated with yeast and fungi.
(§4) The inoculation with bacteria is accomplished by using the following procedure. Twenty-four hour-cultures of each of the bacteria are prepared by incubating the respective bacteria in tubes containing nutrient broth for 24 hours at 30° C. in a shaker. Dilutions of each of the 24 hour-cultures are made so that nine separate suspensions (one for each of the nine test bacteria) are made, each containing 10^8 colony forming units (CFU) per mL of suspension of a particular bacteria. Aliquots of 0.3 mL of each of the bacterial suspensions are used to fill the individual wells of Steer's Replicator. For each microbial suspension, 0.3 mL was used to fill three wells (i.e., three wells of 0.3 mL each) so that for the nine different bacteria, 27 wells are filled. The Steer's Replicator is then used to inoculate both the neutral and alkaline pH nutrient agar petri plates.
(§5) The inoculated petri plates are incubated at 30° C. for 48 hours and then read to determine if the test compound which is incorporated into the agar prevented growth of the respective bacteria.
(§6) Table II list the bacteria, yeast and fungi used in the MIC test described above along with their respective American Type Culture Collection (ATCC) identification numbers.

Saccharomyces cerevisiae = test: MIC for Saccharomyces cerevisiae, malt yeast agar; assay type: cell-based, Saccharomyces cerevisiae ATCC 4105; conditions: malt yeast agar, 30° C., 48 hours for yeast, read-out: Minimum Inhibitory Concentration (MIC), Sc
Procedure: as §1
(§7) Malt yeast agar is prepared by adding 3 g yeast extract and 45 g malt agar per liter of deionized water. The specific agar is dispensed in 30 mL aliquots into 25×200 mm test tubes, capped and autoclaved for 15 minutes at 115° C.
as §3
(§8) The inoculation with the yeast and fungi is accomplished as follows. Cultures of yeast and fungi are incubated for seven days on malt yeast agar at 30° C. These cultures are used to prepare suspensions by the following procedure. A suspension of each organism is prepared by adding 10 mL of sterile saline and 10 microliters of octylphenoxy polyethoxy ethanol to the agar slant of yeast or fungi. The sterile saline/octylphenoxy polyethoxy ethanol solution is then agitated with a sterile swab to suspend the microorganism grown on the slant. Each resulting suspension is diluted into sterile saline (1 part suspension: 9 parts sterile saline). Aliquots of these dilutions are placed in individual wells of Steer's Replicator and petri plates inoculated as previously described. The petri plates are incubated at 30° C. and read after 48 hours for yeast and 72 hours for fungi.
as §6

Bacillus subtilis (Bs) = test: MIC for Bacillus subtilis, nutrient agar; assay type: cell-based, Bacillus subtilis ATCC 8473; conditions: 30° C., 48 hours, read-out: Minimum Inhibitory Concentration (MIC), Bs
Procedure: as §1, §2, §3, §4, §5, §6

[2] = test system: Klebsiella pneumonias (Kp); test: MIC for Klebsiella pneumonias, nutrient agar; assay type: cell-based, Klebsiella pneumonias ATCC 8308; conditions: 30° C., 48 hours, read-out: Minimum Inhibitory Concentration (MIC), Kp
Procedure: as §1, §2, §3, §4, §5, §6

[3] = test system: Penicillium chrysogenum (Pc); test: MIC for Penicillium chrysogenum, malt yeast agar; assay type: cell-based, Penicillium chrysogenum ATCC 9480; conditions: malt yeast agar; 30° C., 72 hours for fungi; read-out: Minimum Inhibitory Concentration (MIC), PC
Procedure: as §1, §7, §3, §8, §6

[4] = test system: Pseudomonas aeruginosa (Pa); test: MIC for Pseudomonas aeruginosa, nutrient agar; assay type: cell-based, Pseudomonas aeruginosa ATCC 10145; conditions: 48 hours, read-out: Minimum Inhibitory Concentration (MIC), Pa
Procedure: as §1, §2, §3, §4, §5, §6

Aspergillus niger (An) = test: MIC for Aspergillus niger, malt yeast agar; assay type: cell-based, Aspergillus niger ATCC 16404; conditions: malt yeast agar; 30° C., 72 hours for fungi; read-out: Minimum Inhibitory Concentration (MIC), An
Procedure: as §1, §7, §3, §8, §6

Fusarium oxysporum (Fo) = test: MIC for Fusarium oxysporum, malt yeast agar; assay type: cell-based, Fusarium oxysporum ATCC 48112; conditions: malt yeast agar; 30° C., 72 hours for fungi; read-out: Minimum Inhibitory Concentration (MIC), Fo
Procedure: as §1, §7, §3, §8, §6

[5] = test system: Aureobasidium pullulan (Ap); test: MIC for Aureobasidium pullulan, malt yeast agar; assay type: cell-based, Aureobasidium pullulan ATCC 16622; conditions: malt yeast agar; 30° C.; 48 hours for yeast and 72 hours for fungi; read-out: Minimum Inhibitory Concentration (MIC), Ap
Procedure: as §1, §7, §3, §8, §6

Salmonella choleraesuis = test: MIC for Salmonella choleraesuis, nutrient agar; assay type: cell-based, Salmonella choleraesuis ATCC 10708; conditions: Salmonella enterica, 30° C., 48 hours, read-out: Minimum Inhibitory Concentration (MIC), SC
Procedure: as §1, §2, §3, §4, §5, §6

Proteus vulgaris (Pv) = test: MIC for Proteus vulgaris, nutrient agar; assay type: cell-based, Proteus vulgaris ATCC 881; conditions: 30° C., 48 hours, read-out: Minimum Inhibitory Concentration (MIC), Pv
Procedure: as §1, §2, §3, §4, §5, §6

Trichoderma viride (Tv) = test: MIC for Trichoderma viride, malt yeast agar; assay type: cell-based, Trichoderma viride ATCC 8678; conditions: malt yeast agar; 30° C., 72 hours for fungi; read-out: Minimum Inhibitory Concentration (MIC), Tv
Procedure: as §1, §7, §3, §8, §6

[6] = test system: Enterobacter aerogenes (Ea); test: MIC for Enterobacter aerogenes, nutrient agar; assay type: cell-based, Enterobacter aerogenes ATCC 13048; conditions: Klebsiella aerogenes, nutrient agar, 30° C., 48 hours, read-out: Minimum Inhibitory Concentration (MIC), Ea
Procedure: as §1, §2, §3, §4, §5, §6

[7] = test system: Pseudomonas aeruginosa (PRD-10); test: MIC for Pseudomonas aeruginosa PRD-10, nutrient agar; assay type: cell-based, Pseudomonas aeruginosa ATCC 15442; conditions: 30° C., 48 hours, read-out: Minimum Inhibitory Concentration (MIC), PRD
Procedure: as §1, §2, §3, §4, §5, §6

Candida albicans (Ca) = test: MIC for Candida albicans, malt yeast agar; assay type: cell-based, Candida albicans ATCC 10231; conditions: malt yeast agar; 30° C., 48 hours for yeast; read-out: Minimum Inhibitory Concentration (MIC), Ca
Procedure: as §1, §7, §3, §8, §6

Escherichia coli (Ec) = test: MIC for Escherichia coli, nutrient agar; assay type: cell-based, Escherichia coli ATCC 11229; conditions: 30° C., 48 hours, read-out: Minimum Inhibitory Concentration (MIC), Ec
Procedure: as §1, §2, §3, §4, §5, §6

Row | Compound | MIC ([1]; pH 6.8, nutrient agar) | MIC ([1]; pH 8.2, nutrient agar) | MIC (Saccharomyces cerevisiae) | MIC (Bacillus subtilis (Bs); pH 6.8, nutrient agar) | MIC (Bacillus subtilis (Bs); pH 8.2, nutrient agar) | MIC ([2]; pH 6.8, nutrient agar) | MIC ([2]; pH 8.2, nutrient agar) | MIC [3] | MIC ([4]; pH 6.8, 30° C.) | MIC ([4]; pH 8.2, 30° C.) | MIC (Aspergillus niger (An)) | MIC (Fusarium oxysporum (Fo)) | MIC [5] | MIC (Salmonella choleraesuis; pH 6.8, nutrient agar) | MIC (Salmonella choleraesuis; pH 8.2, nutrient agar) | MIC (Proteus vulgaris (Pv); pH 6.8, nutrient agar) | MIC (Proteus vulgaris (Pv); pH 8.2, nutrient agar) | MIC (Trichoderma viride (Tv)) | MIC ([6]; pH 6.8) | MIC ([6]; pH 8.2) | other results
1 | N#CC1=C(C#N)Sc2c(cnn(-c3ccc([N+](=O)[O-])cc3)c2=O)S1 [H, 5,6-dihydro-6-(4-nitrophenyl)-5-oxo-1,4-dithiino-(2,3-d)-pyridazine-2,3-dicarbonitrile] | > 500 µg/mL | > 500 µg/mL | > 500 µg/mL | > 500 µg/mL | > 500 µg/mL | > 500 µg/mL | > 500 µg/mL | > 500 µg/mL | > 500 µg/mL | > 500 µg/mL | > 500 µg/mL | > 500 µg/mL | > 500 µg/mL | > 500 µg/mL | > 500 µg/mL | > 500 µg/mL | > 500 µg/mL | > 500 µg/mL | > 500 µg/mL | > 500 µg/mL | MIC ([7]; pH 6.8, nutrient agar): > 500 µg/mL; MIC ([7]; pH 8.2, nutrient agar): > 500 µg/mL; MIC (Candida albicans (Ca)): > 500 µg/mL; MIC (Escherichia coli (Ec); pH 6.8, nutrient agar): > 500 µg/mL; MIC (Escherichia coli (Ec); pH 8.2, nutrient agar): > 500 µg/mL
2 | N#CC1=C(C#N)Sc2c(cnn(Cc3ccccc3)c2=O)S1 [I, 5,6-dihydro-6-(phenylmethyl)-5-oxo-1,4-dithiino-(2,3-d)-pyridazine-2,3-dicarbonitrile] | 50 µg/mL (≈ 154 µM) | > 500 µg/mL | < 10 µg/mL | < 10 µg/mL | 100 µg/mL (≈ 308 µM) | 100 µg/mL (≈ 308 µM) | > 500 µg/mL | 25 µg/mL (≈ 77.1 µM) | 250 µg/mL (≈ 771 µM) | > 500 µg/mL | 25 µg/mL (≈ 77.1 µM) | < 10 µg/mL | < 10 µg/mL | 250 µg/mL (≈ 771 µM) | > 500 µg/mL | 100 µg/mL (≈ 308 µM) | > 500 µg/mL | 25 µg/mL (≈ 77.1 µM) | > 500 µg/mL | > 500 µg/mL | MIC ([7]; pH 6.8, nutrient agar): > 500 µg/mL; MIC ([7]; pH 8.2, nutrient agar): > 500 µg/mL; MIC (Candida albicans (Ca)): < 10 µg/mL; MIC (Escherichia coli (Ec); pH 6.8, nutrient agar): > 500 µg/mL; MIC (Escherichia coli (Ec); pH 8.2, nutrient agar): > 500 µg/mL
3 | N#CC1=C(C#N)Sc2c(cnn(Cc3ccc(Cl)cc3)c2=O)S1 [J, 5,6-dihydro-6-((4-chlorophenyl)methyl)-5-oxo-1,4-dithiino-(2,3-d)-pyridazine-2,3-dicarbonitrile] | 25 µg/mL (≈ 69.7 µM) | 100 µg/mL (≈ 279 µM) | < 10 µg/mL | < 10 µg/mL | 50 µg/mL (≈ 139 µM) | > 500 µg/mL | > 500 µg/mL | < 10 µg/mL | > 500 µg/mL | > 500 µg/mL | < 10 µg/mL | < 10 µg/mL | < 10 µg/mL | > 500 µg/mL | > 500 µg/mL | 250 µg/mL (≈ 697 µM) | > 500 µg/mL | 25 µg/mL (≈ 69.7 µM) | > 500 µg/mL | > 500 µg/mL | MIC ([7]; pH 6.8, nutrient agar): > 500 µg/mL; MIC ([7]; pH 8.2, nutrient agar): > 500 µg/mL; MIC (Candida albicans (Ca)): < 10 µg/mL; MIC (Escherichia coli (Ec); pH 6.8, nutrient agar): 100 µg/mL (≈ 279 µM); MIC (Escherichia coli (Ec); pH 8.2, nutrient agar): > 500 µg/mL
4 | Cc1ccc(Cn2ncc3c(c2=O)SC(C#N)=C(C#N)S3)cc1 [K, 5,6-dihydro-6-((4-methylphenyl)methyl)-5-oxo-1,4-dithiino-(2,3-d)-pyridazine-2,3-dicarbonitrile] | > 500 µg/mL | > 500 µg/mL | 25 µg/mL (≈ 73.9 µM) | < 10 µg/mL | 100 µg/mL (≈ 295 µM) | > 500 µg/mL | > 500 µg/mL | 25 µg/mL (≈ 73.9 µM) | > 500 µg/mL | > 500 µg/mL | 25 µg/mL (≈ 73.9 µM) | 25 µg/mL (≈ 73.9 µM) | < 10 µg/mL | > 500 µg/mL | > 500 µg/mL | 500 µg/mL (≈ 1480 µM) | > 500 µg/mL | 25 µg/mL (≈ 73.9 µM) | > 500 µg/mL | > 500 µg/mL | MIC ([7]; pH 6.8, nutrient agar): > 500 µg/mL; MIC ([7]; pH 8.2, nutrient agar): > 500 µg/mL; MIC (Candida albicans (Ca)): 25 µg/mL (≈ 73.9 µM); MIC (Escherichia coli (Ec); pH 6.8, nutrient agar): > 500 µg/mL; MIC (Escherichia coli (Ec); pH 8.2, nutrient agar): > 500 µg/mL
